# Measured values reported in PMC4229100, “A Two-Step Strategy to Enhance Activity of Low Potency Peptides” (PLoS ONE, 2014).
# Like-named read-outs stand apart in the source and are kept apart here. Ends that are not written are not given here. Peptide text beside a SMILES is read from it. * marks the point of attachment. PEG8 = NCCOCCOCCOCCOCCOCCOCCOCCOCCC(=O)O; Palmitoyl = CCCCCCCCCCCCCCCC(=O)*
# How the values were obtained:
# CCK2R [1] = molecular target: T1, CCK2R (Homo sapiens, UniProt P32239); experiment: Antagonist inhibition of agonist-induced CCK2R signaling (SRE-luciferase, HEK293); assay type: cell-based; set-up: expressed in transfected cells; host or cells: HEK293
# T1 sequence (P32239 1-447): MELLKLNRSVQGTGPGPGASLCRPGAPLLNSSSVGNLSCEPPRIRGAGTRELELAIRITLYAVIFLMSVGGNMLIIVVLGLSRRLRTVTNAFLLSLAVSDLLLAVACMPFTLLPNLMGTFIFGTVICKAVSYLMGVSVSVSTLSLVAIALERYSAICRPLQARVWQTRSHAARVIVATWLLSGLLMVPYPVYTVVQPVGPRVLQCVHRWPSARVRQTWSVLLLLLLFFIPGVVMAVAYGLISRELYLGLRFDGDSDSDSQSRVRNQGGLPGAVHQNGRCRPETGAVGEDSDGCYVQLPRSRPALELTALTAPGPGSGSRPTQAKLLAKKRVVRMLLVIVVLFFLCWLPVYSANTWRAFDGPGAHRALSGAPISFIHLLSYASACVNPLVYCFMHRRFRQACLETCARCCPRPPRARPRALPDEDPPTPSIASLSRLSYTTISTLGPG
# Protocol: Figure 6 YM022 inhibits CCK2R signaling induced by tethered CCK4-Gly, soluble CCK4-Gly, or lipidated CCK4-Gly. A) YM022 blocks tethered CCK4-Gly mediated CCK2R signaling. […] Four hours following transfection, cells were with treated with increasing concentrations of YM022 for 20 hours. […] B) YM022 blocks s-CCK4-Gly-COOH and l-CCK4-Gly-COOH mediated activation of CCK2R. HEK293 cells were transfected as indicated above. Twenty hours after transfection, cells were with treated with increasing concentrations of YM022 together with either 10 µM of l-CCK4-Gly-COOH or s-CCK4-Gly-COOH.
# NK1R [2] = molecular target: T2, NK1R (Homo sapiens, UniProt P25103); experiment: cell-based
# Protocol: (§1) Human embryonic kidney cells (HEK293) were maintained at 37°C in a humidified 5% CO2 atmosphere and cultured with Dulbecco’s modified Eagle’s medium (Invitrogen, Chicago, IL) containing 10% fetal bovine serum, 100 U/mL penicillin, and 100 µg/mL streptomycin. Cells were seeded into 96-well plates and grown to ∼80% confluence. Cells were transfected for 24 hours using polyethylenimine (Sigma, Atlanta, GA) in serum-free medium [17] with cDNAs encoding, a) tethered ligand (where noted), b) 3 ng of indicated receptor, c) 25 ng of a 5X-SRE-Luc-pest (pGL4.33), a luciferase reporter construct under the control of a serum response element (Promega, Madison, WI), and d) 10 ng of β-galactosidase to control for transfection efficiency.
# (§2) The expression of membrane tethered Substance P, CCK4, and CCK4-Gly was assessed by ELISA using an antibody directed to the myc epitope tag within the MTL cDNA construct [8].
# (§3) Tethered ligand induced signaling was assessed in HEK293 cells 24 hours after transfection. For soluble and lipidated peptides, 20 hours following transfection, cells were stimulated in serum-free medium for an additional 4 hours. […] With tethered ligands, antagonists were added 4 hours after transfection; activity was assessed following an additional 20 hour incubation. Quantification of luciferase and β-galactosidase activities were performed as previously described [6]. Data were analyzed by nonlinear curve fitting using Graph Pad Prism 5.0 software.
# (§4) HEK293 cells were transiently cotransfected for 24 hours with cDNAs encoding: the designated NK receptor subtype, a 5X-SRE-Luc-pest reporter construct (pGL4.33), tethered ligand (for MTL assays, left panels), and a β-galactosidase gene to control for transfection variability. For assessment of SMAL induced signaling, cells were stimulated with ligand for an additional 4 hours. […] Data represent the mean ± SEM from 3 independent experiments, each performed in triplicate.
# NK2R = molecular target: T3, NK2R (Homo sapiens, UniProt P21452); experiment: SRE-luciferase reporter agonist assay in HEK293 cells transfected with NK2R; conditions: HEK293, SRE-Luc; relative to 1 µM s-SubP-NH2; MTL coexpressed 24 hours, peptides 4 hours
# T3 sequence (P21452 1-398): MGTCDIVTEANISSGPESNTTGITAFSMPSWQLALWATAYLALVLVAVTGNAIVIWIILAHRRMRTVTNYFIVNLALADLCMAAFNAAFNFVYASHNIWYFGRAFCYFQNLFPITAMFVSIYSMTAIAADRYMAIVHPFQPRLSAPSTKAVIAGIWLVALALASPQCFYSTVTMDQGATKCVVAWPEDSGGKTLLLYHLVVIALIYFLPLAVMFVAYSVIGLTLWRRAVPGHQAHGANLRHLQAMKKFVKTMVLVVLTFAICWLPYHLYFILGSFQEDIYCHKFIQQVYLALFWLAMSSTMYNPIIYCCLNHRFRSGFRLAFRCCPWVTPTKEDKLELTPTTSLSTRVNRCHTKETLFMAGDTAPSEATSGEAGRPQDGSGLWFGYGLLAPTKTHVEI
# Protocol: as §1, §2
# (§5) Tethered ligand induced signaling was assessed in HEK293 cells 24 hours after transfection. […] With tethered ligands, antagonists were added 4 hours after transfection; activity was assessed following an additional 20 hour incubation. Quantification of luciferase and β-galactosidase activities were performed as previously described [6]. Data were analyzed by nonlinear curve fitting using Graph Pad Prism 5.0 software. […]
# NK1R [3] = molecular target: T2, NK1R
# Protocol: as §1, §2, §3, §4
# NK3R = molecular target: T4, NK3R (Homo sapiens, UniProt P29371); experiment: SRE-luciferase reporter agonist assay in HEK293 cells transfected with NK3R; conditions: HEK293, SRE-Luc; relative to 1 µM s-SubP-NH2; MTL coexpressed 24 hours, peptides 4 hours
# T4 sequence (P29371 1-465): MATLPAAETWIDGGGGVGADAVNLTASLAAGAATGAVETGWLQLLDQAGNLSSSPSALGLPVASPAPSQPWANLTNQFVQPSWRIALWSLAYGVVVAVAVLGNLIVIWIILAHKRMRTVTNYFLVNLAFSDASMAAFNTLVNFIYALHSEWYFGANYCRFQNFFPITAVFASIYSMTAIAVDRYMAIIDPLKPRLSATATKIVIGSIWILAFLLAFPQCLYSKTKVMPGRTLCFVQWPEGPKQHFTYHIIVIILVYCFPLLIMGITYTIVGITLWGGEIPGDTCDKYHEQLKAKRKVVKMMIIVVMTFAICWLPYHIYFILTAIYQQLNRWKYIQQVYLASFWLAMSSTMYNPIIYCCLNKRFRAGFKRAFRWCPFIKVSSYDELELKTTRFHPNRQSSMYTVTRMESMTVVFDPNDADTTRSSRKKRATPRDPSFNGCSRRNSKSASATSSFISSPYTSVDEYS
# Protocol: as §1, §2, §5
# CCK2R [4] = molecular target: T1, CCK2R; experiment: SRE-luciferase reporter agonist assay in HEK293 cells transfected with CCK2R; conditions: for CCK2R mediated signaling (agonist activity, in words): HEK293, SRE-Luc, relative to 10 µM s-CCK4-NH2, MTL coexpressed 24 hours, peptides 4 hours
# Protocol: as §1
# The CCK2 receptor was cloned as previously reported [18]; the CCK1R cDNA was PCR amplified based on a published sequence [19]. Each receptor cDNA encoding the human sequence was subcloned into pcDNA1.1. […] The nucleotide sequences of all receptor and tethered ligand coding regions were confirmed by automated DNA sequencing and analyzed using Vector NTI software (Invitrogen, Chicago, IL). The expression of membrane tethered Substance P, CCK4, and CCK4-Gly was assessed by ELISA using an antibody directed to the myc epitope tag within the MTL cDNA construct [8].
# as §3
# HEK293 cells were transiently cotransfected with cDNAs encoding: the designated CCK receptor subtype, a 5X-SRE-Luc-pest reporter construct (pGL4.33), tethered ligand (as indicated) and a β-galactosidase gene to control for transfection efficiency. Tethered ligand activity was measured 24 hours following transfection. To assess activity of soluble and lipidated CCK4-Gly, cells were stimulated for an additional 4 hours with ligand. […] Data represent the mean ± SEM from 3 independent experiments, each performed in triplicate.
# CCK1R = molecular target: T5, CCK1R (Homo sapiens, UniProt P32238); experiment: SRE-luciferase reporter agonist assay in HEK293 cells transfected with CCK1R; conditions: HEK293, SRE-Luc; relative to 10 µM s-CCK8-NH2; MTL coexpressed 24 hours, peptides 4 hours
# T5 sequence (P32238 1-428): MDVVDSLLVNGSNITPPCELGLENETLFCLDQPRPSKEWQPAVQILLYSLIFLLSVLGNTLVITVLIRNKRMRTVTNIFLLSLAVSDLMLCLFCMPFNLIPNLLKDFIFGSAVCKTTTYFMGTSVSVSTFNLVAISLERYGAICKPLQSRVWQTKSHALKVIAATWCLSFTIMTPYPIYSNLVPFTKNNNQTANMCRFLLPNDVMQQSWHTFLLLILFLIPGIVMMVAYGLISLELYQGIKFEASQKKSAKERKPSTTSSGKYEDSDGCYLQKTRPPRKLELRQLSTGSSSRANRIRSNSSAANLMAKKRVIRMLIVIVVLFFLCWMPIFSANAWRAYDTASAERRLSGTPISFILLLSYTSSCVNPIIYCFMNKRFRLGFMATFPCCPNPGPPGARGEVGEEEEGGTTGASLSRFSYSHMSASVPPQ
# Protocol: Human embryonic kidney cells (HEK293) were maintained at 37°C in a humidified 5% CO2 atmosphere and cultured with Dulbecco’s modified Eagle’s medium (Invitrogen, Chicago, IL) containing 10% fetal bovine serum, 100 U/mL penicillin, and 100 µg/mL streptomycin. Cells were seeded into 96-well plates and grown to ∼80% confluence. […]
# The CCK2 receptor was cloned as previously reported [18]; the CCK1R cDNA was PCR amplified based on a published sequence [19]. […] The nucleotide sequences of all receptor and tethered ligand coding regions were confirmed by automated DNA sequencing and analyzed using Vector NTI software (Invitrogen, Chicago, IL). The expression of membrane tethered Substance P, CCK4, and CCK4-Gly was assessed by ELISA using an antibody directed to the myc epitope tag within the MTL cDNA construct [8].
# as §5
# T2 sequence (P25103 whole entry): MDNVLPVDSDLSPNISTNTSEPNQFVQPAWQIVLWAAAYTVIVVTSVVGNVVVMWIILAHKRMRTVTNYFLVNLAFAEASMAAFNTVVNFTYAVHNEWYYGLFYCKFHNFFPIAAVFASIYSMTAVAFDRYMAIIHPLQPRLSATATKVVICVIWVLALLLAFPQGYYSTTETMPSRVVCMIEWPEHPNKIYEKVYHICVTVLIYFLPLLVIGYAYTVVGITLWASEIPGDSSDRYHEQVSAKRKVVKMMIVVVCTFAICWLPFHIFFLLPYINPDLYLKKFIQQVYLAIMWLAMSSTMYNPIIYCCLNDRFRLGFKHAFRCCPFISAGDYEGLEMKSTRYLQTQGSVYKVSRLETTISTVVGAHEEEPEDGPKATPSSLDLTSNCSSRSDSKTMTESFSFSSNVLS
compound,measurement,setting,value
"Cc1cccc(NC(=O)N[C@@H]2N=C(c3ccccc3)c3ccccc3N(CC(=O)c3ccccc3C)C2=O)c1 [YM022, (R)-1-[2,3-dihydro-1-(2′-methylphenacyl)-2-oxo-5-phenyl-1H-1,4-benzodiazepin-3-yl]-3-(3-methylphenyl)urea]",IC50,"CCK2R [1]; agonist 10 µM l-CCK4-Gly-COOH, 4 hours, read-out: IC50 for inhibition of l-CCK4-Gly-COOH induced CCK2R signaling",10.2 nM
same,IC50,"CCK2R [1]; agonist 10 µM s-CCK4-Gly-COOH, 4 hours, read-out: IC50 for inhibition of s-CCK4-Gly-COOH induced CCK2R signaling",0.84 nM
same,IC50,"CCK2R [1]; agonist tCCK4-Gly (coexpressed MTL), antagonist added 4 hours after transfection for 20 hours, read-out: IC50 for inhibition of tCCK4-Gly induced CCK2R signaling",0.54 nM
CCCCCCCCCCCCCCCC(=O)NCCOCCOCCOCCOCCOCCOCCOCCOCCC(=O)NCCCC[C@H](NC(C)=O)C(=O)NCC(=O)NCC(=O)N[C@@H](CCCNC(=N)N)C(=O)N1CCC[C@H]1C(=O)N[C@@H](CCCCN)C(=O)N1CCC[C@H]1C(=O)N[C@@H](CCC(N)=O)C(=O)N[C@@H](CCC(N)=O)C(=O)N[C@@H](Cc1ccccc1)C(=O)N[C@@H](Cc1ccccc1)C(=O)NCC(=O)N[C@@H](CC(C)C)C(=O)N[C@@H](CCSC)C(=O)O [l-SubP-COOH],EC50,NK1R [2],6.1 nM
same,"NK2R mediated signaling (agonist activity, in words)",NK2R,no signaling was observed
same,"NK1R mediated signaling (agonist activity, in words)","NK1R [3]; HEK293, SRE-Luc, relative to 1 µM s-SubP-NH2, MTL coexpressed 24 hours, peptides 4 hours",activated
same,"NK3R mediated signaling (agonist activity, in words)",NK3R,activated
WMDFG [s-CCK4-Gly-COOH],EC50,CCK2R [4],> 1000 nM
CCCCCCCCCCCCCCCC(=O)NCCOCCOCCOCCOCCOCCOCCOCCOCCC(=O)NCC(=O)NCC(=O)N[C@@H](Cc1c[nH]c2ccccc12)C(=O)N[C@@H](CCSC)C(=O)N[C@@H](CC(=O)O)C(=O)N[C@@H](Cc1ccccc1)C(=O)NCC(=O)O [l-CCK4-Gly-COOH] ({Palmitoyl-PEG8}-GGWMDFG-OH),EC50,CCK2R [4],> 1000 nM
same,"CCK2R mediated signaling (agonist activity, in words)",CCK2R [4],activated
same,"CCK1R mediated signaling (agonist activity, in words)",CCK1R,lacked activity
CCCCCCCCCCCCCCCC(=O)NCCOCCOCCOCCOCCOCCOCCOCCOCCC(=O)NCCCC[C@H](Nc1ccc([N+](=O)[O-])c2nonc12)C(=O)NCC(=O)NCC(=O)N[C@@H](CCCNC(=N)N)C(=O)N1CCC[C@H]1C(=O)N[C@@H](CCCCN)C(=O)N1CCC[C@H]1C(=O)N[C@@H](CCC(N)=O)C(=O)N[C@@H](CCC(N)=O)C(=O)N[C@@H](Cc1ccccc1)C(=O)N[C@@H](Cc1ccccc1)C(=O)NCC(=O)N[C@@H](CC(C)C)C(=O)N[C@@H](CCSC)C(N)=O [l-SubP-NH2],EC50,NK1R [2],0.4 nM
same,"NK1R mediated signaling (agonist activity, in words)",NK1R [3],fully active
same,Potency at NK1R compared with soluble counterpart (in words),NK1R [3],more potent than s-SubP-NH2
CCCCCCCCCCCCCCCC(=O)NCCOCCOCCOCCOCCOCCOCCOCCOCCC(=O)NCC(=O)NCC(=O)N[C@@H](Cc1c[nH]c2ccccc12)C(=O)N[C@@H](CCSC)C(=O)N[C@@H](CC(=O)O)C(=O)N[C@@H](Cc1ccccc1)C(N)=O [l-CCK4-NH2] ({Palmitoyl-PEG8}-GGWMDF-NH2),EC50,CCK2R [4],2.6 nM
same,"CCK2R mediated signaling (agonist activity, in words)",CCK2R [4],does not fully activate
